Experimental data as given in US7772241B2, “Variolin derivatives and their use as antitumor agents” (Pharma Mar S.A., priority 2001, dated 2010).

Tests used:
[1] = tested on: HeLa; experiment: Inhibition of cells growth by colorimetric (SRB) assay, HeLa
Excerpt: (§1) The finality of these assays is to interrupt the growth of a “in vitro” tumor cell culture by means a continued exhibition of the cells to the sample to be testing.
(§2) This form of the assay employs 96 well cell culture microplates of 9 mm diameter (Faircloth, 1988; Mosmann, 1983). Most of the cell lines are obtained from American Type Culture Collection (ATCC) derived from different human cancer types.
(§3) Cells are maintained in RPMI 1640 10% FBS, supplemented with 0.1 g/l penicillin and 0.1 g/l streptomycin sulphate and then incubated at 37° C., 5% CO2 and 98% humidity. For the experiments, cells were harvested from subconfluent cultures using trypsin and resuspended in fresh medium before plating.
(§4) Cells are seeded in 96 well microtiter plates, at 5×10^3 cells per well in aliquots of 195 μl medium, and they are allowed to attach to the plate surface by growing in drug free medium for 18 hours. Afterward, samples are added in aliquots of 5 μl in a ranging from 10 to 10^−8 μg/ml, dissolved in DMSO/EtOH/PBS (0.5:0.5:99). After 48 hours exposure, the antitumor effect are measured by the SRB methodology: cells are fixed by adding 50 μl of cold 50% (wt/vol) trichloroacetic acid (TCA) and incubating for 60 minutes at 4° C. Plates are washed with deionized water and dried. One hundred μl of SRB solution (0.4% wt/vol in 1% acetic acid) is added to each microtiter well and incubated for 10 minutes at room temperature. Unbound SRB is removed by washing with 1% acetic acid. Plates are air dried and bound stain is solubilized with Tris buffer. Optical densities are read on a automated spectrophotometric plate reader at a single wavelength of 490 nm.
(§5) The values for mean +/−SD of data from triplicate wells are calculated. Some parameters for cellular responses can be calculated: GI=growth inhibition, TGI=total growth inhibition (cytostatic effect) and LC=cell killing (cytotoxic effect).

[2] = tested on: HeLa-APL; experiment: Inhibition of cells growth by colorimetric (SRB) assay, HeLa-APL
Excerpt: as §1, §2, §3, §4, §5

[3] = tested on: SK-MEL-28; experiment: Inhibition of cells growth by colorimetric (SRB) assay, SK-MEL-28
Method in brief: (§6)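 Human tumour cells in RPMI 1640 with 10% FBS were seeded at 5×10^3 cells/well, allowed to attach for 18 h, then exposed to samples at 10 to 10^−8 μg/ml for 48 h. Growth was measured by SRB staining after TCA fixation, with absorbance read at 490 nm in triplicate wells.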

[4] = tested on: LNCaP; experiment: Inhibition of cells growth by colorimetric (SRB) assay, LNCaP
Method in brief: as §6

[5] = tested on: HT-29; experiment: Inhibition of cells growth by colorimetric (SRB) assay, HT-29
Method in brief: as §6

[6] = tested on: A-549; experiment: Inhibition of cells growth by colorimetric (SRB) assay, A-549
Method in brief: as §6

[7] = tested on: IGROV-1; experiment: Inhibition of cells growth by colorimetric (SRB) assay, IGROV-1
Method in brief: as §6

[8] = tested on: K-562; experiment: Inhibition of cells growth by colorimetric (SRB) assay, K-562
Method in brief: as §6

[9] = tested on: LoVo; experiment: Inhibition of cells growth by colorimetric (SRB) assay, LoVo
Method in brief: as §6

[10] = tested on: IGROV-ET; experiment: Inhibition of cells growth by colorimetric (SRB) assay, IGROV-ET
Method in brief: as §6

[11] = tested on: DU-145; experiment: Inhibition of cells growth by colorimetric (SRB) assay, DU-145
Method in brief: as §6

[12] = tested on: LoVo-Dox; experiment: Inhibition of cells growth by colorimetric (SRB) assay, LoVo-Dox
Method in brief: as §6

[13] = tested on: SK-BR-3; experiment: Inhibition of cells growth by colorimetric (SRB) assay, SK-BR-3
Method in brief: as §6

[14] = tested on: PANC-1; experiment: Inhibition of cells growth by colorimetric (SRB) assay, PANC-1
Method in brief: as §6

GI50 ([1]; Homo sapiens, HeLa, 48 h, read-out: HELA GI50, SRB assay, 48 hours exposure): 10 nM
GI50 ([2]; Homo sapiens, 48 h, read-out: HELA-APL GI50, SRB assay, 48 hours exposure): 10.3 nM
GI50 ([3]; Homo sapiens, SK-MEL-28, 48 h, read-out: MEL-28 GI50, SRB assay, 48 hours exposure): 1080 nM
GI50 ([4]; Homo sapiens, LNCaP, 48 h, read-out: LN-caP GI50, SRB assay, 48 hours exposure): 310 nM
GI50 ([5]; Homo sapiens, HT-29, 48 h, read-out: HT-29 GI50, SRB assay, 48 hours exposure): 1140 nM
GI50 ([6]; Homo sapiens, A549, 48 h, read-out: A-549 GI50, SRB assay, 48 hours exposure): 1290 nM
GI50 ([8]; Homo sapiens, K562, 48 h, read-out: K-562 GI50, SRB assay, 48 hours exposure): 2510 nM
GI50 ([9]; Homo sapiens, LoVo, 48 h, read-out: LOVO GI50, SRB assay, 48 hours exposure): 539 nM
GI50 ([11]; Homo sapiens, DU-145, 48 h, read-out: DU-145 GI50, SRB assay, 48 hours exposure): 365 nM
GI50 ([12]; Homo sapiens, 48 h, read-out: LOVO-DOX GI50, SRB assay, 48 hours exposure): 1150 nM
GI50 ([13]; Homo sapiens, SK-BR-3, 48 h, read-out: SK-BR-3 GI50, SRB assay, 48 hours exposure): 641 nM
GI50 ([14]; Homo sapiens, PANC-1, 48 h, read-out: PANC-1 GI50, SRB assay, 48 hours exposure): 588 nM
Compound: CSc1nccc(-c2c3cccnc3n3c(N)nccc23)n1.Cl [Compound 68]
HELA TGI ([1]; SRB assay, 48 hours exposure): 3.19E−08
CC50 ([2]; Homo sapiens, 48 h, read-out: HELA-APL LC50, SRB assay, 48 hours exposure): 655 nM
HELA-APL TGI ([2]; SRB assay, 48 hours exposure): 5.68E−08
CC50 ([3]; Homo sapiens, SK-MEL-28, 48 h, read-out: MEL-28 LC50, SRB assay, 48 hours exposure): 14400 nM
MEL-28 TGI ([3]; SRB assay, 48 hours exposure): 4.49E−06
CC50 ([4]; Homo sapiens, LNCaP, 48 h, read-out: LN-caP LC50, SRB assay, 48 hours exposure): 4410 nM
LN-caP TGI ([4]; SRB assay, 48 hours exposure): 1.05E−06
CC50 ([5]; Homo sapiens, HT-29, 48 h, read-out: HT-29 LC50, SRB assay, 48 hours exposure): 29000 nM
HT-29 TGI ([5]; SRB assay, 48 hours exposure): 6.93E−06
CC50 ([6]; Homo sapiens, A549, 48 h, read-out: A-549 LC50, SRB assay, 48 hours exposure): 29000 nM
A-549 TGI ([6]; SRB assay, 48 hours exposure): 5.10E−06
GI50 ([7]; Homo sapiens, IGROV-1, 48 h, read-out: IGROV GI50, SRB assay, 48 hours exposure): 1720 nM
CC50 ([7]; Homo sapiens, IGROV-1, 48 h, read-out: IGROV LC50, SRB assay, 48 hours exposure): 29000 nM
IGROV TGI ([7]; SRB assay, 48 hours exposure): 1.27E−05
CC50 ([8]; Homo sapiens, K562, 48 h, read-out: K-562 LC50, SRB assay, 48 hours exposure): 29000 nM
K-562 TGI ([8]; SRB assay, 48 hours exposure): 1.84E−05
CC50 ([9]; Homo sapiens, LoVo, 48 h, read-out: LOVO LC50, SRB assay, 48 hours exposure): 2590 nM
LOVO TGI ([9]; SRB assay, 48 hours exposure): 1.18E−06
GI50 ([10]; Homo sapiens, 48 h, read-out: IGROV-ET GI50, SRB assay, 48 hours exposure): 2820 nM
CC50 ([10]; Homo sapiens, 48 h, read-out: IGROV-ET LC50, SRB assay, 48 hours exposure): 29000 nM
IGROV-ET TGI ([10]; SRB assay, 48 hours exposure): 1.44E−05
CC50 ([11]; Homo sapiens, DU-145, 48 h, read-out: DU-145 LC50, SRB assay, 48 hours exposure): 2900 nM
DU-145 TGI ([11]; SRB assay, 48 hours exposure): 1.03E−06
CC50 ([12]; Homo sapiens, 48 h, read-out: LOVO-DOX LC50, SRB assay, 48 hours exposure): 29000 nM
LOVO-DOX TGI ([12]; SRB assay, 48 hours exposure): 2.43E−06
CC50 ([13]; Homo sapiens, SK-BR-3, 48 h, read-out: SK-BR-3 LC50, SRB assay, 48 hours exposure): 16100 nM
SK-BR-3 TGI ([13]; SRB assay, 48 hours exposure): 3.42E−06
CC50 ([14]; Homo sapiens, PANC-1, 48 h, read-out: PANC-1 LC50, SRB assay, 48 hours exposure): 29000 nM
PANC-1 TGI ([14]; SRB assay, 48 hours exposure): 1.15E−05
